Assay [1] concerns the target hM3Dq (Homo sapiens, UniProt P20309, A239G/Y149C). Kind of assay: cell-based. Type of assay: cell-based. Particulars: for Emax: read-out: hM3Dq Emax (relative to CNO); for hM3Dq potency decrease on replacing methyl with n-propyl: 4d vs 4a, 5d vs 5a.
Assay [2] concerns the target hM3 (native human M3 receptor) (Homo sapiens, UniProt P20309). Kind of assay: cell-based. Type of assay: cell-based. As to conditions: for Emax: read-out: hM3 Emax (relative to acetylcholine).
Assay [3] deals with T1, 5HT2C (Homo sapiens, UniProt P28335).
T1 sequence (P28335 33-458): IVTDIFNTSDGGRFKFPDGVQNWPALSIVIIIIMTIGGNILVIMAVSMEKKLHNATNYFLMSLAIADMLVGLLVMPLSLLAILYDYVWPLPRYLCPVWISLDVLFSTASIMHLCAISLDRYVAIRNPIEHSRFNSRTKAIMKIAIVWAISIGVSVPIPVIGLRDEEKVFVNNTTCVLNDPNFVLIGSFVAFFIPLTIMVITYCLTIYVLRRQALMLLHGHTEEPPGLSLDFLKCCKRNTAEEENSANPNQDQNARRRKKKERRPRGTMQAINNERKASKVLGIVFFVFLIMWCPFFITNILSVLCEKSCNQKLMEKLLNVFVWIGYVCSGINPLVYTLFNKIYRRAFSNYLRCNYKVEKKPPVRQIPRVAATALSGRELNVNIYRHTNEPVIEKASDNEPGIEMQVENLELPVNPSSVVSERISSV
Kind of assay: 5HT2C radioligand binding assay. Particulars: for pKi: Ki 5HT2C, radioligand binding.

Assay [4] has as its target T2, α1A (Homo sapiens, UniProt P35348).
T2 sequence (P35348 1-466): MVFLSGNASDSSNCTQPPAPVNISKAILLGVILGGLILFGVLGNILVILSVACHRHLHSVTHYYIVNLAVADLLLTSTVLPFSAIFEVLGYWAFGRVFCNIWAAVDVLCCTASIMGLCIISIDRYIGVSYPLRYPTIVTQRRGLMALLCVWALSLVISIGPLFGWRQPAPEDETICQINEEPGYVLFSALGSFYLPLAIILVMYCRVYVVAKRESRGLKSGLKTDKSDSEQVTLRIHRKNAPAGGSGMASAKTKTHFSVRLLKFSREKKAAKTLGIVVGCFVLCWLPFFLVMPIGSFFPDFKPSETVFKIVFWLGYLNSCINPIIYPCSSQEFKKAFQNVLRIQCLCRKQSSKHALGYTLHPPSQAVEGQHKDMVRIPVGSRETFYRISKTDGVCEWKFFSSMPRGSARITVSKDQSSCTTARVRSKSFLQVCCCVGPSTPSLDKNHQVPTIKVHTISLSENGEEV
Kind of assay: α1A radioligand binding assay. Particulars: for pKi: Ki α1A, radioligand binding.

Assay [5] addresses H1 (Homo sapiens, UniProt P35367). Kind of assay: biochemical. Type of assay: binding. As to conditions: for pKi: Ki H1, radioligand binding.
Assay [6] addresses 5HT2A (Homo sapiens, UniProt P28223). Kind of assay: biochemical. Type of assay: binding. As to conditions: for pKi: Ki 5HT2A, radioligand binding.

pEC50, pKi: −log10 of the molar value. Entries after “also recorded” stand apart in the source; their conditions may differ.

One may read the pKi as the negative decadic logarithm of the Ki, by convention in mol/L. The term pEC50 denotes −log10 of the EC50, conventionally taken in molar units. Lower therefore signals a high EC50. One may read the Emax as the size of the effect at its maximum, as opposed to the concentration needed.

Chain of H1 (P35367 whole entry): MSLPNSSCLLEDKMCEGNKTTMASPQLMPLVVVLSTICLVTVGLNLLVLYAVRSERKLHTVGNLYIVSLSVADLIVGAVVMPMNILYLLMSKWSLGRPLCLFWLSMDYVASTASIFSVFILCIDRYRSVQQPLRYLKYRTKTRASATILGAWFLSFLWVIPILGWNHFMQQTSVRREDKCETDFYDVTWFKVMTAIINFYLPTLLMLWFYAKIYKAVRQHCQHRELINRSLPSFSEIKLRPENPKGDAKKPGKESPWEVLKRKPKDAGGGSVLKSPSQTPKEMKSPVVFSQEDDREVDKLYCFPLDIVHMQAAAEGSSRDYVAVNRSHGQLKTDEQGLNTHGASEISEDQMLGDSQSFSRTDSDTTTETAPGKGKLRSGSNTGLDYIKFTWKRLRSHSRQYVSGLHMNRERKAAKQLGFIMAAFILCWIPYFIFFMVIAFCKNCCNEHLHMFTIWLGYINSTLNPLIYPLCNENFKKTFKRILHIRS
Chain of 5HT2A (P28223 whole entry, species assumed): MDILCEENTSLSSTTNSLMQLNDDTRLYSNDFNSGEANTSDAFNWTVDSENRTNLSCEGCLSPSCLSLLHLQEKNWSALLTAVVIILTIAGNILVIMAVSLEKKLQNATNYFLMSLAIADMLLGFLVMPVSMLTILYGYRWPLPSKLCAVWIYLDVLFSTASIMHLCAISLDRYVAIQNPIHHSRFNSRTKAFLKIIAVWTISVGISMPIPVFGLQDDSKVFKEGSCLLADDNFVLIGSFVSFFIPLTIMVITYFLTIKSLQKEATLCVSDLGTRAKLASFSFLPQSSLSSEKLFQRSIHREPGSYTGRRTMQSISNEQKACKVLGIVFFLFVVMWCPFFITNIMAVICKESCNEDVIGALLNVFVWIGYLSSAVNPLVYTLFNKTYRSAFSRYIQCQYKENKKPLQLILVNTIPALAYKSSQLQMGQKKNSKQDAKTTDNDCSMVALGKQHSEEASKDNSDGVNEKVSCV
Chain of hM3Dq (P20309 whole entry Y149C/A239G): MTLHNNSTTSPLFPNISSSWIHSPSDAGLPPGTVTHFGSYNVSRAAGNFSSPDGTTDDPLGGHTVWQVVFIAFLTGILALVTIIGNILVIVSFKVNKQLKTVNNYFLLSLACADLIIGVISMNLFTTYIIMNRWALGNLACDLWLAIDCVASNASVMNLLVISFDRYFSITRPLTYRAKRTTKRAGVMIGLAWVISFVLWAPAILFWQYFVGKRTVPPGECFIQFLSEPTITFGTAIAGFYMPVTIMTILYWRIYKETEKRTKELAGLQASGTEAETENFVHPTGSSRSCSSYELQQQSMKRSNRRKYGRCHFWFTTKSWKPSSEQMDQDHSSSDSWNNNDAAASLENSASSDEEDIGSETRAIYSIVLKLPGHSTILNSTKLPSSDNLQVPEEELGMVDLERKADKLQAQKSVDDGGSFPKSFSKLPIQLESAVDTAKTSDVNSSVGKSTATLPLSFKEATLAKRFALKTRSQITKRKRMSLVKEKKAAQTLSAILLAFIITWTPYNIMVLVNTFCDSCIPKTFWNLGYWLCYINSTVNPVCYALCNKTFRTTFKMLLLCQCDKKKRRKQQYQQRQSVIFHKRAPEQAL
Chain of hM3 (native human M3 receptor) (P20309 whole entry): as the sequence (P20309 whole entry Y149C/A239G) above, with C149Y, G239A counted along it

For `CC(=O)OCC[N+](C)(C)C` [ACh, acetylcholine, reference compound], the “agonist activity for hM3Dq (in words)” value in assay [1] is listed as “does not activate”. Besides, the “agonist activity for hM3 (in words)” value in assay [2] is recorded as “potent hM3 agonist”.
Regarding `CC(C)N1CCN(C2=Nc3cc(Cl)ccc3Nc3ccccc32)CC1` [Compound 4c, 8-Chloro-11-(4-isopropylpiperazin-1-yl)-5H-dibenzo[b,e][1,4]diazepine], the results for the pKi in assay [3], in assay [4] and in assay [5] were 7.77, 7.43 and 8.34, respectively. The figures for the pEC50 in assay [1] and in assay [2] were 7.89 and less than 4.52, respectively. The maximum response (Emax) in assay [1] was 45%.
For `CCCN1CCN(C2=Nc3cc(Cl)ccc3Nc3ccccc32)CC1` [Compound 4d, 8-Chloro-11-(4-propylpiperazin-1-yl)-5H-dibenzo[b,e][1,4]diazepine], in assay [1], the pEC50 was 7.15, the “hM3Dq potency decrease on replacing methyl with n-propyl” value is “approximately 70 fold” and the Emax worked out at 50%. Also, in assay [2], the pEC50 is less than 4.52.
For `CC[N+]1([O-])CCN(C2=Nc3cc(Cl)ccc3Nc3ccccc32)CC1` [Compound 5b, 4-(8-Chloro-5H-dibenzo[b,e][1,4]diazepin-11-yl)-1-ethylpiperazine N-oxide], the negative logarithm of the Ki (pKi) in assay [3] is 5.29; in assay [4], less than 6.00; in assay [6], 5.72; in assay [5] it was 6.80. Besides, the figures for the pEC50 in assay [1] and in assay [2] were 7.72 and less than 4.52, respectively. The maximal effect (Emax) in assay [1] stood at 50%. For the same molecule, the “selectivity for hM3Dq over H1” value in assay [5] is listed as “about 8 fold”.
Regarding `CC(C)[N+]1([O-])CCN(C2=Nc3cc(Cl)ccc3Nc3ccccc32)CC1` [Compound 5c, 4-(8-Chloro-5H-dibenzo[b,e][1,4]diazepin-11-yl)-1-isopropylpiperazine N-oxide], the pKi in assay [3] was 5.17; in assay [4], 6.49; in assay [6], 5.28; in assay [5], 5.21. In addition, the “selectivity for hM3Dq over α1A” value in assay [4] is reported as “about 2 fold”. The pEC50 was 6.72 in assay [1] and less than 4.52 in assay [2]. In assay [1], the Emax is 45%.
As for `CCC[N+]1([O-])CCN(C2=Nc3cc(Cl)ccc3Nc3ccccc32)CC1` [Compound 5d, 4-(8-Chloro-5H-dibenzo[b,e][1,4]diazepin-11-yl)-1-propylpiperazine N-oxide], in assay [1], the pEC50 is 6.13, the “hM3Dq potency decrease on replacing methyl with n-propyl” value is reported as roughly 100 fold and the Emax was 79%. For the same molecule, the negative logarithm of the EC50 (pEC50) in assay [2] is less than 4.52.
On to `C[N+]1(C)CCN(C2=Nc3cc(Cl)ccc3Nc3ccccc32)CC1.[I-]` [Compound 6, 4-(8-Chloro-5H-dibenzo[b,e][1,4]diazepin-11-yl)-1,1-dimethylpiperazin-1-ium iodide], for which, in assay [1], the pEC50 is 10.16, the “fold more potent than compound 4a (clozapine) at hM3Dq” value is “about 15 fold” and the Emax is 100%. Besides, in assay [2], the pEC50 is 8.02, the “selectivity for hM3Dq over hM3” value is given as greater than 100 fold and the Emax was 92%.
As for `O=C1CN(C2=Nc3cc(Cl)ccc3Nc3ccccc32)CCN1` [Compound 7, 4-(8-Chloro-5H-dibenzo[b,e][1,4]diazepin-11-yl)piperazin-2-one], in assay [1], the pEC50 was less than 4.52 and the “agonist activity for hM3Dq (in words)” value was “did not display any agonist activity”. Further, in assay [2], the pEC50 was less than 4.52 and the “agonist activity for hM3 (in words)” value is reported as “did not activate”.
As for `O=C1NC(=O)C2(CCN(C3=Nc4cc(Cl)ccc4Nc4ccccc43)CC2)N1` [Compound 9, 8-(8-Chloro-5H-dibenzo[b,e][1,4]diazepin-11-yl)-1,3,8-triazaspiro[4.5]decane-2,4-dione], in assay [1], the pEC50 was less than 4.52 and the “agonist activity for hM3Dq (in words)” value was “did not activate”. Further, in assay [2], the pEC50 is less than 4.52 and the “agonist activity for hM3 (in words)” value was “did not activate”.
`NC1(C(=O)O)CCN(C2=Nc3cc(Cl)ccc3Nc3ccccc32)CC1` [Compound 10, 4-Amino-1-(8-chloro-5H-dibenzo[b,e][1,4]diazepin-11-yl)piperidine-4-carboxylic acid]: in assay [1], the negative-log EC50 (pEC50) is less than 4.52 and the “agonist activity for hM3Dq (in words)” value was “did not activate”. Besides, in assay [2], the negative logarithm of the EC50 (pEC50) is less than 4.52 and the “agonist activity for hM3 (in words)” value is listed as “did not activate”.
On to `CC(=O)N1CCN(C2=Nc3cc(Cl)ccc3Nc3ccccc32)CC1` [Compound 12, 1-(4-(8-Chloro-5H-dibenzo[b,e][1,4]diazepin-11-yl)piperazin-1-yl)ethanone], for which, in assay [1], the pEC50 is less than 4.52 and the “agonist activity for hM3Dq (in words)” value is “did not display any agonist activity”. For the same molecule, in assay [2], the pEC50 is less than 4.52 and the “agonist activity for hM3 (in words)” value is given as “did not activate”.
With `CS(=O)(=O)N1CCN(C2=Nc3cc(Cl)ccc3Nc3ccccc32)CC1` [Compound 14, 8-Chloro-11-(4-(methylsulfonyl)piperazin-1-yl)-5H-dibenzo[b,e][1,4]diazepine], in assay [1], the negative logarithm of the EC50 (pEC50) was less than 4.52 and the “agonist activity for hM3Dq (in words)” value is “did not display any agonist activity”. For the same molecule, in assay [2], the pEC50 is less than 4.52 and the “agonist activity for hM3 (in words)” value is on record as “did not activate”.
`c1ccc2c(c1)N=C(N1CCNCC1)c1ccccc1N2` [Compound 21, 11-(Piperazin-1-yl)-5H-dibenzo[b,e][1,4]diazepine]: in assay [3], the “selectivity for hM3Dq over 5HT2C” value is 100 fold and the pKi was 6.77. Besides, in assay [4], the “selectivity for hM3Dq over α1A” value was 165 fold and the pKi was 6.55. Besides, in assay [6], the “selectivity for hM3Dq over 5HT2A” value is 40 fold and the pKi is 7.18. In assay [1], the pEC50 was 8.77 and the Emax was 100%. For the same molecule, in assay [2], the “agonist activity for hM3 (in words)” value is “do not activate; also recorded: inactive” and the Emax was roughly 20%. In addition, in assay [5], the “selectivity for hM3Dq over H1” value is 3.5 fold and the pKi is 8.22.
As to `CCN1CCN(C2=Nc3ccccc3Nc3ccccc32)CC1` [Compound 22, 11-(4-Ethylpiperazin-1-yl)-5H-dibenzo[b,e][1,4]diazepine], in assay [1], the maximum response (Emax) is 81%. In assay [2], the “agonist activity for hM3 (in words)” value is recorded as “did not exhibit any agonist activity”.
With `CC[N+]1([O-])CCN(C2=Nc3ccccc3Nc3ccccc32)CC1` [Compound 23, 4-(5H-Dibenzo[b,e][1,4]diazepin-11-yl)-1-ethylpiperazine N-oxide], in assay [1], the negative-log EC50 (pEC50) was 6.66, the “fold less potent for hM3Dq than compound 5b” value is recorded as “about 10 fold” and the Emax is 59%. Further, in assay [2], the negative logarithm of the EC50 (pEC50) was less than 4.52 and the “agonist activity for hM3 (in words)” value is on record as “did not exhibit any agonist activity”.
On to `CN1CCN(C2=Nc3ccccc3Cc3ccccc32)CC1` [perlapine, reference compound], for which the “selectivity for hM3Dq over hM3” value in assay [2] was > 10 000 fold.

The record behind these values is PMC4368042 (ACS Chemical Neuroscience, 2015).
